Legend:
[1] = system: barnyardgrass; assay: Test A preemergence; assay type: in vivo, Echinochloa crus-galli; conditions: 0 to 100 scale (0 no effect, 100 complete control); for pest or weed control at 125 g/ha / pest or weed control at 500 g/ha: Echinochloa crus-galli, pre-emergence, 240 h, read-out: Plant response rating, Barnyardgrass; for pest or weed control at 500 g/ha: 500 g ai/ha, approx. 10 d
Procedure, shortened: (§1)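 Test chemicals in a non-phytotoxic solvent with surfactant were applied as a directed soil spray preemergence to seeds sown in loam/sand. Postemergence sprays went to plants 2–10 cm tall at the one- to two-leaf stage. A dash means no result.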

[2] = system: foxtail, giant; assay: Test A preemergence; assay type: in vivo, Setaria faberii; conditions: 0 to 100 scale (0 no effect, 100 complete control); for pest or weed control at 125 g/ha / pest or weed control at 500 g/ha: Setaria faberi, pre-emergence, 240 h, read-out: Plant response rating, Foxtail, Giant; for pest or weed control at 500 g/ha: 500 g ai/ha, approx. 10 d
Procedure, shortened: as §1

[3] = system: barnyardgrass; assay: Test A postemergence; assay type: in vivo, Echinochloa crus-galli; conditions: 0 to 100 scale (0 no effect, 100 complete control), approx. 10 d; for pest or weed control at 125 g/ha / pest or weed control at 500 g/ha: Echinochloa crus-galli, post-emergence, 240 h, read-out: Plant response rating, Barnyardgrass; for pest or weed control at 500 g/ha: 500 g ai/ha
Procedure, shortened: as §1

[4] = system: corn; assay: Test A postemergence; assay type: in vivo, Zea mays; conditions: 0 to 100 scale (0 no effect, 100 complete control), approx. 10 d; for Corn plant response rating (crop injury, 0 = no effect, 100 = complete kill) at 125 g/ha / Corn plant response rating (crop injury, 0 = no effect, 100 = complete kill) at 500 g/ha: Zea mays, post-emergence, 240 h; for Corn plant response rating (crop injury, 0 = no effect, 100 = complete kill) at 500 g/ha: 500 g ai/ha
Procedure, shortened: as §1

[5] = system: rice; assay: Test B flooded paddy test; assay type: in vivo, Oryza sativa; conditions: applied to paddy water at 2-leaf stage, visual rating after 13 to 15 d, scale 0 (no effect) to 100 (complete control)
Procedure, shortened: (§2)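 Pots were flooded to 3 cm above the soil at treatment, and compounds were applied directly into the paddy water. That depth was held throughout. After 13 to 15 d in a greenhouse, plants were rated visually against untreated controls.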

[6] = system: ducksalad; assay: Test B flooded paddy test; assay type: in vivo, Heteranthera limosa; conditions: applied to paddy water at 2-leaf stage, visual rating after 13 to 15 d, scale 0 (no effect) to 100 (complete control)
Procedure, shortened: as §2

[7] = system: crabgrass, large; assay: Test C postemergence; assay type: in vivo, Digitaria sanguinalis
Excerpt: (§3) Seeds of plant species selected from blackgrass (Alopecurus myosuroides), ryegrass, Italian (Italian ryegrass, Lolium multiflorum), wheat (winter wheat, Triticum aestivum), galium (catchweed bedstraw, Galium aparine), corn (Zea mays), crabgrass, large (large crabgrass, Digitaria sanguinalis), foxtail, giant, (giant foxtail, Setaria faberii), johnsongrass (Sorghum halepense), lambsquarters (Chenopodium album), morningglory (Ipomoea coccinea), nutsedge, yellow (yellow nutsedge, Cyperus esculentus), pigweed (Amaranthus retroflexus), ragweed (common ragweed, Ambrosia elatior), soybean (Glycine max), barnyardgrass (Echinochloa crus-galli), oilseed rape (Brassica napus), waterhemp (common waterhemp, Amaranthus rudis), and velvetleaf (Abutilon theophrasti) were planted into a blend of loam soil and sand and treated preemergence with test chemicals formulated in a non-phytotoxic solvent mixture which included a surfactant. At the same time, plants selected from these crop and weed species and also chickweed (common chickweed, Stellaria media), oat, wild (wild oat, Avena fatua), and kochia (Kochia scoparia), were planted in pots containing Sunshine Redi-Earth® planting medium comprising spaghnum peat moss, vermiculite, starter nutrients and dolomitic limestone and treated with postemergence applications of test chemicals formulated in the same manner. Plants ranged in height from 2 to 18 cm (1- to 4-leaf stage) for postemergence treatments. […] A dash (-) response means no test result.

[8] = system: johnsongrass; assay: Test C postemergence; assay type: in vivo, Sorghum halepense
Excerpt: as §3

[9] = system: morningglory; assay: Test C postemergence; assay type: in vivo, Ipomoea coccinea
Excerpt: as §3

[10] = system: pigweed; assay: Test C postemergence; assay type: in vivo, Amaranthus retroflexus
Excerpt: as §3

[11] = system: ragweed; assay: Test C postemergence; assay type: in vivo, Ambrosia elatior
Excerpt: as §3

[12] = system: velvetleaf; assay: Test C postemergence; assay type: in vivo, Abutilon theophrasti
Excerpt: as §3

[13] = system: kochia; assay: Test C postemergence; assay type: in vivo, Kochia scoparia
Excerpt: as §3

## COc1nc(-c2ccc(C(F)(F)F)cc2)nn1Cc1ccnc(C(F)(F)F)c1 [Compound 25]
[1]; 31 g ai/ha
  Plant response rating, Barnyardgrass: 10
[1]; 125 g ai/ha
  Plant response rating, Barnyardgrass: 70
[2]; 31 g ai/ha
  Plant response rating, Foxtail, Giant: 70
[2]; 125 g ai/ha
  Plant response rating, Foxtail, Giant: 100
[3]; 31 g ai/ha
  Plant response rating, Barnyardgrass: 20
[3]; 125 g ai/ha
  Plant response rating, Barnyardgrass: 60
[4]; 31 g ai/ha
  Plant response rating, Corn: 10
[4]; 125 g ai/ha
  Plant response rating, Corn: 30
[5]; 250 g ai/ha
  Plant response rating, Rice, Flood: 25
[6]; 250 g ai/ha
  Plant response rating, Ducksalad, Flood: 20
[7]; 31 g ai/ha
  Plant response rating (scale of 0 to 100 where 0 is no effect and 100 is complete control): 15
[7]; 62 g ai/ha
  Plant response rating (scale of 0 to 100 where 0 is no effect and 100 is complete control): 20
[7]; 125 g ai/ha
  Plant response rating (scale of 0 to 100 where 0 is no effect and 100 is complete control): 30
[7]; 250 g ai/ha
  Plant response rating (scale of 0 to 100 where 0 is no effect and 100 is complete control): 45
[8]; 31 g ai/ha
  Plant response rating (scale of 0 to 100 where 0 is no effect and 100 is complete control): 10
[8]; 62 g ai/ha
  Plant response rating (scale of 0 to 100 where 0 is no effect and 100 is complete control): 20
[8]; 125 g ai/ha
  Plant response rating (scale of 0 to 100 where 0 is no effect and 100 is complete control): 20
[8]; 250 g ai/ha
  Plant response rating (scale of 0 to 100 where 0 is no effect and 100 is complete control): 30
[9]; 31 g ai/ha
  Plant response rating (scale of 0 to 100 where 0 is no effect and 100 is complete control): 90
[9]; 62 g ai/ha
  Plant response rating (scale of 0 to 100 where 0 is no effect and 100 is complete control): 85
[9]; 125 g ai/ha
  Plant response rating (scale of 0 to 100 where 0 is no effect and 100 is complete control): 75
[9]; 250 g ai/ha
  Plant response rating (scale of 0 to 100 where 0 is no effect and 100 is complete control): 95
[10]; 31 g ai/ha
  Plant response rating (scale of 0 to 100 where 0 is no effect and 100 is complete control): 100
[10]; 62 g ai/ha
  Plant response rating (scale of 0 to 100 where 0 is no effect and 100 is complete control): 100
[10]; 125 g ai/ha
  Plant response rating (scale of 0 to 100 where 0 is no effect and 100 is complete control): 100
[10]; 250 g ai/ha
  Plant response rating (scale of 0 to 100 where 0 is no effect and 100 is complete control): 100
[11]; 31 g ai/ha
  Plant response rating (scale of 0 to 100 where 0 is no effect and 100 is complete control): 65
[11]; 62 g ai/ha
  Plant response rating (scale of 0 to 100 where 0 is no effect and 100 is complete control): 80
[11]; 125 g ai/ha
  Plant response rating (scale of 0 to 100 where 0 is no effect and 100 is complete control): 75
[11]; 250 g ai/ha
  Plant response rating (scale of 0 to 100 where 0 is no effect and 100 is complete control): 85
[12]; 31 g ai/ha
  Plant response rating (scale of 0 to 100 where 0 is no effect and 100 is complete control): 35
[12]; 62 g ai/ha
  Plant response rating (scale of 0 to 100 where 0 is no effect and 100 is complete control): 50
[12]; 125 g ai/ha
  Plant response rating (scale of 0 to 100 where 0 is no effect and 100 is complete control): 70
[12]; 250 g ai/ha
  Plant response rating (scale of 0 to 100 where 0 is no effect and 100 is complete control): 75
[13]; 31 g ai/ha
  Plant response rating (scale of 0 to 100 where 0 is no effect and 100 is complete control): 90
[13]; 62 g ai/ha
  Plant response rating (scale of 0 to 100 where 0 is no effect and 100 is complete control): 90
[13]; 125 g ai/ha
  Plant response rating (scale of 0 to 100 where 0 is no effect and 100 is complete control): 90
[13]; 250 g ai/ha
  Plant response rating (scale of 0 to 100 where 0 is no effect and 100 is complete control): 95

## CS(=O)(=O)c1nc(-c2ccc(F)cc2)nn1Cc1ccnc(C(F)(F)F)c1 [Compound 29, 4-[[3-(4-fluorophenyl)-5-(methylsulfonyl)-1H-1,2,4-triazole-1-yl]methyl]-2-(trifluoromethyl)pyridine]
[1]; 125 g ai/ha
  pest or weed control at 125 g/ha: 0%
[1]
  pest or weed control at 500 g/ha: 0%
[2]; 125 g ai/ha
  pest or weed control at 125 g/ha: 0%
[2]
  pest or weed control at 500 g/ha: 0%
[3]; 125 g ai/ha
  pest or weed control at 125 g/ha: 0%
[3]
  pest or weed control at 500 g/ha: 0%
[4]; 125 g ai/ha
  Corn plant response rating (crop injury, 0 = no effect, 100 = complete kill) at 125 g/ha: 0%
[4]
  Corn plant response rating (crop injury, 0 = no effect, 100 = complete kill) at 500 g/ha: 0%
[5]; Oryza sativa, 360 h, 125 g ai/ha, read-out: Plant response rating, Rice, Flood
  plant injury at 125 g/ha: 0%
[6]; Heteranthera limosa, 360 h, 125 g ai/ha, read-out: Plant response rating, Ducksalad, Flood
  pest or weed control at 125 g/ha: 0%

## Cn1nc(-c2ccc(F)cc2)nc1Oc1cccc(C(F)(F)F)c1 [Compound 5, 3-(4-fluorophenyl)-1-methyl-5-[3-(trifluoromethyl)phenoxy]-1H-1,2,4-triazole]
[1]; 125 g ai/ha
  pest or weed control at 125 g/ha: 0%
[1]
  pest or weed control at 500 g/ha: 20%
[2]; 125 g ai/ha
  pest or weed control at 125 g/ha: 60%
[2]
  pest or weed control at 500 g/ha: 90%
[3]; 125 g ai/ha
  pest or weed control at 125 g/ha: 10%
[3]
  pest or weed control at 500 g/ha: 30%
[4]; 125 g ai/ha
  Corn plant response rating (crop injury, 0 = no effect, 100 = complete kill) at 125 g/ha: 10%
[4]
  Corn plant response rating (crop injury, 0 = no effect, 100 = complete kill) at 500 g/ha: 20%

— patent publication US10681909B2, “Herbicidal triazoles” (FMC Corporation, priority 2014, dated 2020)
